Data set [1] can be described thus: Solubility at pH 7.4. The data set is classed as physicochemical.
Data set [2] concerns Stage III-V gametocytes (blood stage P. falciparum parasites). Put plainly: In vitro drug activity on gametocytes (AlamarBlue viability assay). The data set is classed as cell-based, Plasmodium falciparum. The settings on record: for EC50: P. falciparum stage III-V gametocytes, 72 h incubation, AlamarBlue, read-out: Gametocyte EC50. The method, then:
Cell culture. Asexual parasites of P. falciparum strain 3D7 were cultured as described previously [Trager W, et al., Journal of Parasitology 2005, 91: 484-486], Stage III-V gametocytes were selected and enriched with 3-day treatment with 50 mM N-acetylglucosamine (NAG) and the following Percoll density gradient centrifugation after gametocyte production [Tanaka T Q, et al., Molecular and Biochemical Parasitology, 2011, 111: 160-163], Gametocytes of HB3 and Dd2 strains were produced and then set up for assay in a similar process. HepG2 cells (ATCC, cat. no. 77400) were cultured in 175-cm^2 tissue culture flasks with 30 ml growth medium at 37° C. in a 5% CO2 humidified atmosphere. Growth medium was made with Dulbecco's Modified Eagle Medium with 10% fetal bovine serum (FBS). Growth medium was replaced every other day and cells were passed at 75% confluence.
Compound screening experiments were performed as previously described [Tanaka T Q et al., Molecular and Biochemical Parasitology, 2013, 3188: 20-25], Briefly, 2.5 μl/well incomplete medium was dispensed into each well of 1,536-well plates using the Multidrop Combi followed by 23 nl compound transferring using the NX-TR Pintool (WAKO Scientific Solutions, San Diego, Calif.). 2.5 μl/well of gametocytes was dispensed with a seeding density of 20,000 cells/well using the Multidrop Combi. The assay plates were incubated for 72 h at 37° C. with 5% CO2. After addition of 5 μl/well of 2× AlamarBlue dye (Life Technologies, cat. no. DALI 100), the plates were incubated for 24 h at 37° C. with 5% CO2 and were read in a fluorescence detection mode (Ex=525 nm, Em=598 nm) on a ViewLux plate reader (PerkinElmer).
Stage III-V gametocytes (blood stage P. falciparum parasites) were enriched with treatment with 50 mM N-acetylglucosamine (NAG) and Percoll density gradient centrifugation as described previously^1. Briefly, 2.5 μl/well incomplete medium was dispensed into each well of 1,536-well plates using the Multidrop Combi followed by 23 nl compound transfer using the NX-TR Pintool (WAKO Scientific Solutions, San Diego, Calif.). Then, 2.5 μl/well of gametocytes was dispensed with a seeding density of 20,000 cells/well using the Multidrop Combi. The assay plates were incubated for 72 h at 37° C. with 5% CO2. After addition of 5 μl/well of 2× AlamarBlue dye (Life Technologies, cat. no. DALI 100), the plates were incubated for 24 h at 37° C. with 5% CO2 and then were read in a fluorescence detection mode (Ex=525 nm, Em=598 nm) on a ViewLux plate reader (PerkinElmer).

Data set [3] can be described thus: Microsomal stability (rat). Type of data set: in vitro ADME. The settings on record: rat microsomes.
The subject of data set [4] is Asexual parasites of P. falciparum strain 3D7. Put plainly: In vitro drug activity on asexual parasites (SYBR Green assay). The data set is classed as cell-based, Plasmodium falciparum. In short, it runs like this:
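SYBR Green I fluorescence (ex 490, em 520 nm) was read after freeze-thaw lysis and 30 min staining at room temperature. Before that, drug-treated cultures (0.5% parasitemia, 2% hematocrit, DMSO ≤0.5%) were incubated 72 h, in duplicate.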

[5] abbreviates: P. falciparum 3D7 asexual parasites, 72 h, SYBR Green.

Read-outs that look alike come from different tables or passages of the source.

This is an account of results in patent publication US11753408B2, “Compounds and method for blocking transmission of malarial parasite” (The United States of America, as represented by the …, priority 2016, dated 2023).

Turning to `O=c1ccc2cnc3ccc(-c4ccc(Cl)cc4)cc3c2n1-c1ccc(S(=O)(=O)NC2CC2)cc1` [Compound 46], the “Sol @ pH 7.4 (ug/mL)” value in data set [1] was <1.0 ug/mL. Moreover, the figures for the EC50 in data set [2] and in data set [4] (setting [5]) were 260 nM and 62.5 nM, respectively. Moreover, in data set [3], the “Microsomal Stability (rat) T1/2” value was 8.3 min.
The like results for `CN(C)Cc1ccc(-c2ccc3ncc4ccc(=O)n(-c5ccc([S+](C)[O-])cc5)c4c3c2)cc1` (stereo not shown) [Compound 54] were, in that order, >69.00 ug/mL, 393 nM, 146 nM and 51.7 min.
Regarding `NCCc1ccc(-c2ccc3ncc4ccc(=O)n(-c5ccc6c(c5)CNC6=O)c4c3c2)cc1` [Compound 377], the “Sol @ pH 7.4 (ug/mL)” value in data set [1] came out at 0 ug/mL. In addition, the EC50 in data set [2] was determined as 384 nM.
`CN(C)Cc1ccc(-c2ccc3ncc4ccc(=O)n(-c5ccc6c(c5)CN(CC(=O)O)C6=O)c4c3c2)cc1` [Compound 355]: in data set [1], the “Sol @ pH 7.4 (ug/mL)” value was >77.0 ug/mL. Besides, the EC50 in data set [2] stood at 28800 nM; in data set [4] (setting [5]), 2020 nM. Further, the “Microsomal Stability (rat) T1/2” value in data set [3] is on record as >30.0 min.
In the case of `Cc1ccc(C#N)cc1-n1c(=O)ccc2cnc3ccc(-c4ccc(CN(C)C)cc4)cc3c21` [Compound 7], in data set [1], the “Sol @ pH 7.4 (ug/mL)” value is recorded as >66.00 ug/mL. The values for the 50% effective concentration (EC50) in data set [2] and in data set [4] (setting [5]) were 25.1 nM and 13.1 nM, respectively.
Turning to `CCN(CC)S(=O)(=O)c1ccc(-n2c(=O)ccc3cnc4ccc(-c5ccc(Cl)cc5)cc4c32)cc1` [Compound 39], the “Sol @ pH 7.4 (ug/mL)” value in data set [1] was <1.0 ug/mL. The EC50 in data set [2] amounted to 426 nM; in data set [4] (setting [5]) it was 414 nM. Moreover, the “Microsomal Stability (rat) T1/2” value in data set [3] was found to be 1.7 min.
For the compound `COC(=O)CN1Cc2cc(-n3c(=O)ccc4cnc5ccc(-c6ccc(Cl)cc6)cc5c43)ccc2C1=O` [Compound 345], the EC50 in data set [2] is 3830 nM. For the same compound, in data set [3], the “Microsomal Stability (rat) T1/2” value is on record as <1.0 min.
For `CN(C)Cc1ccc(-c2ccc3ncc4ccc(=O)n(-c5ccc(S(C)(=O)=O)c(N6CCOCC6)c5)c4c3c2)cc1` [Compound 62], the “Sol @ pH 7.4 (ug/mL)” value in data set [1] is recorded as >84.00 ug/mL. Further, the EC50 in data set [2] amounted to 1320 nM; in data set [4] (setting [5]), 558 nM. Besides, the “Microsomal Stability (rat) T1/2” value in data set [3] was >30.00 min.
As to `N#Cc1ccc(-n2c(=O)[nH]c3cnc4ccc(-c5ccc(Cl)cc5)cc4c32)cc1` [Compound 434], the “Sol @ pH 7.4” value in data set [1] was <1.0 ug/mL. Moreover, the “Gametocyte EC50” value in data set [2] is “Inactive”. The “Microsomal Stability (rat) T1/2” value in data set [3] worked out at 11.3 min. Besides, the midpoint of the response in data set [4], the EC50, lay at 45000 nM.
In the case of `COc1ccc(C#N)cc1-n1c(=O)ccc2cnc3ccc(-c4ccc(F)cc4)cc3c21` [Compound 13], the “Sol @ pH 7.4 (ug/mL)” value in data set [1] came to 0 ug/mL. Besides, the concentration giving a half-maximal response (EC50) in data set [2] stood at 135 nM; in data set [4] (setting [5]) it was 80.4 nM.
In the case of `Nc1ccc(-c2ccc3ncc4ccc(=O)n(-c5ccc(S(N)(=O)=O)cc5)c4c3c2)cn1` [Compound 78], the “Sol @ pH 7.4 (ug/mL)” value in data set [1] is on record as <1.0 ug/mL. In addition, the EC50 came out at 11.6 nM in data set [2] and 6.12 nM in data set [4] (setting [5]). Moreover, the “Microsomal Stability (rat) T1/2” value in data set [3] is >30.0 min.
On to `N#Cc1cc(-n2c(=O)ccc3cnc4ccc(-c5ccc(Cl)cc5)cc4c32)ccc1N1CCOCC1` [Compound 6], for which the “Sol @ pH 7.4 (ug/mL)” value in data set [1] came to 0.02 ug/mL. The EC50 in data set [2] is 102 nM.
With `O=C1CCc2cc(-n3c(=O)ccc4cnc5ccc(-c6ccc(Cl)cc6)cc5c43)ccc2N1` [Compound 356], the “Sol @ pH 7.4 (ug/mL)” value in data set [1] is on record as <0.10 ug/mL. In addition, the EC50 stood at 65.5 nM in data set [2] and 25 nM in data set [4] (setting [5]). Further, in data set [3], the “Microsomal Stability (rat) T1/2” value is >30.00 min.
In the case of `N#Cc1ccc(-n2c(=O)ccc3cnc4ccc(-c5ccc(N)nc5)cc4c32)cc1` [Compound 22], the “Sol @ pH 7.4 (ug/mL)” value in data set [1] is <1.0 ug/mL. In addition, the EC50 in data set [2] was determined as 115 nM; in data set [4] (setting [5]), 34.6 nM. Moreover, the “Microsomal Stability (rat) T1/2” value in data set [3] is recorded as >30.0 min.
The like results for `CN1Cc2cc(-n3c(=O)ccc4cnc5ccc(-c6ccc(Cl)cc6)cc5c43)ccc2C1=O` [Compound 341] were, in that order, <1.0 ug/mL, 83 nM, 69.1 nM and 12.4 min.
The like results for `O=C1c2ccc(-n3c(=O)ccc4cnc5ccc(-c6ccc(Cl)cc6)cc5c43)cc2CN1C1CC1` [Compound 353] were, in that order, 0 ug/mL, 2510 nM, 589 nM and >30.0 min.
For `O=C1NCCc2cc(-n3c(=O)ccc4cnc5ccc(-c6ccc(Cl)cc6)cc5c43)ccc21` [Compound 367], in that order: 0 ug/mL, 105 nM, 29 nM and 12.8 min.
`Nc1ccc(-c2ccc3ncc4ccc(=O)n(-c5ccc6c(c5)CCC(=O)N6)c4c3c2)cn1` [Compound 391]: the “Sol @ pH 7.4 (ug/mL)” value in data set [1] amounted to 10 ug/mL. In addition, the EC50 in data set [2] stood at 56.3 nM; in data set [4] (setting [5]) it was 12.3 nM. In addition, the “Microsomal Stability (rat) T1/2” value in data set [3] is >30.00 min.
`N#Cc1cc(-n2c(=O)ccc3cnc4ccc(-c5ccc(F)cc5)cc4c32)ccc1N1CCNCC1` [Compound 15]: the EC50 in data set [2] was determined as 521 nM; in data set [4] (setting [5]) it was 730 nM.
As to `O=C1Cc2ccc(-n3c(=O)ccc4cnc5ccc(-c6ccc(Cl)cc6)cc5c43)cc2N1` [Compound 376], the “Sol @ pH 7.4 (ug/mL)” value in data set [1] was 0 ug/mL. Further, the EC50 was found to be 199 nM in data set [2] and 115 nM in data set [4] (setting [5]).
Regarding `O=C1Cc2cc(-n3c(=O)ccc4cnc5ccc(-c6ccc(Cl)cc6)cc5c43)ccc2N1` [Compound 346], the EC50 in data set [2] was 48.4 nM; in data set [4] (setting [5]) it was 18.6 nM.
For `COc1ccc(C#N)cc1-n1c(=O)ccc2cnc3ccc(-c4ccc(Cl)cc4)cc3c21` [Compound 12], in that order: 126 nM and 55.8 nM.
The like results for `N#Cc1cc(-n2c(=O)ccc3cnc4ccc(-c5ccc(Cl)cc5)cc4c32)ccc1N1CCNCC1` [Compound 16] were, in that order, 69.4 nM and 23.7 nM.
The like results for `N#Cc1cccc(-n2c(=O)ccc3cnc4ccc(-c5ccc(Cl)cc5)cc4c32)c1` [Compound 1] were, in that order, 88.8 nM and 27.9 nM.
In the case of `COc1ccc(C#N)cc1-n1c(=O)ccc2cnc3ccc(-c4ccc(CN(C)C)cc4)cc3c21` [Compound 14], the figures for the EC50 in data set [2] and in data set [4] (setting [5]) were 425 nM and 113 nM, respectively.
For `CN(C)Cc1ccc(-c2ccc3ncc4ccc(=O)n(-c5ccc(S(C)(=O)=O)c(Cl)c5)c4c3c2)cc1` [Compound 63], in that order: 342 nM and 147 nM.
For `CCN1Cc2cc(-n3c(=O)ccc4cnc5ccc(-c6ccc(Cl)cc6)cc5c43)ccc2C1=O` [Compound 351], in that order: 2160 nM and 156 nM.
The like results for `Nc1ccc(-c2ccc3ncc4ccc(=O)n(-c5ccc(S(=O)(=O)NC6CC6)cc5)c4c3c2)cn1` [Compound 82] were, in that order, 167 nM and 150 nM.
Take `CN(C)Cc1ccc(-c2ccc3ncc4ccc(=O)n(-c5ccc6c(c5)CC(=O)N6)c4c3c2)cc1` [Compound 350]: the “Sol @ pH 7.4 (ug/mL)” value in data set [1] was >68.0 ug/mL. Further, the EC50 came to 1000 nM in data set [2] and 546 nM in data set [4] (setting [5]).
